Laboratory results taken from US5081253A, “Imidazo(4,5-C)pyridines as antiosteoporotic agents” (American Home Products Corporation, priority 1990, dated 1992).

Columns and labels:
[1] = test system: Rat Limb Bones (basal bone resorption); experiment: Basal Bone Resorption Assay: 45Ca Release from Rat Limb Bones; assay type: cell-based; settings: 10 μg/mL
Description: The purpose of this assay is to test stimulators and inhibitors of bone resorption in vitro. The release of ^45 Ca from in vitro labeled murine bone explants into the culture media is taken as an index of bone resorption.
Rat pups are labelled […] by injecting pregnant dams (18 days) with 100 μCi of ^45 Ca.
Two days after the initiation of labelling, the dam is anesthetized with halothane and killed by cervical dislocation. The pups are ablated and quickly decapitated. The calvaria (frontal and parietal bones), forelimbs (containing radii and ulnae), and hind limbs (tibiae) are removed and placed in control media in a petri dish. Bones are debrided of soft tissue by a combination of blunt dissection, and gentle rolling on bibulous paper, taking care not to disturb the periosteum. Cartilaginous ends are cut off long bones. Calvaria are cut in half along midline suture. Bones are separated into 3 categories: calvaria halves, Tibiae and ulnae/radii. Groups of eight (per bone group) are randomly placed in 24-well culture plates containing 0.5 mL of control media. Cultures are maintained at 37° C. in a humidified incubator of 95% air: 5% CO2.
These bones are incubated for 24 hours, media is aspirated from the bones and replaced with fresh media containing test substances. Each bone group has a control group of 8 and a dead bone group of 8. The devitalized cultures are obtained by heating the bones in medium at 55° C. for 60 minutes. The bones are incubated at 37° C. for an additional 72 hours. At the end of this period a 100 microliter aliquot of media is removed and placed in a scintillation vial. Ten mL of Aquasol is added, the ^45 Ca is quantified in a scintillation spectrometer. Bones are rinsed in saline, placed in a scintillation vial, hydrolyzed overnight in 0.75 mL 6N HCl at room temperature. The hydrolyzed bone solution is neutralized by the addition of 2.25 mL of 2N NaOH, followed by 10 mL of Aquasol, the ^45 Ca content is determined by scintillation spectrometry.
Analysis: ^45 Ca release into culture medium from the 24-96 hour period is individually compared to ^45 Ca release in control cultures and to devitalized bone via Dunnett's test. […]

[2] = test system: Rat Limb Bones (PTH induced bone resorption); experiment: Bone Resorption Assay: 45Ca Release from Rat Limb Bones (PTH Induced); assay type: cell-based, rat (Sprague-Dawley CD); settings: 10 μg/mL
Protocol: The purpose of this assay is to identify compounds that inhibit basal or stimulated bone resorption in culture.
The ability of 2-substituted-imidazo[4,5-c]pyridines to modify the process of bone resorption was evaluated essentially as described by L.G. Raisz, Bone resorption in tissue culture. Factors influencing the response to parathyroid hormone.
Timed pregnant Sprague-Dawley CD® rats (Charles River) are administered 100 μCi ^45 CaCl2 (NEN calcium -45 NEZ-013) in 100 μL of 0.9% saline, subcutaneously, on day 18 of gestation. The rats are sacrificed the following day by CO2 asphyxiation. The fetuses are removed and the right forelimbs excised and placed in a Petri dish containing ice cold explant medium consisting of modified BGJb -Fitton Jackson media (custom formulation, Gibco No. 78-0088) adjusted to pH 7.3 to which 10 mM TES is added. […] Under a dissecting microscope, the bones are gently cleaned of adherent tissue and the cartilaginous ends removed. Incubation and drug treatment. […] The preincubation medium is brought to 37° C. prior to transfer of bones. The preincubation medium consists of the modified BGJb medium (with salts and glucose as above), pH 7.3, containing 29 mM NaHCO3. […] For compounds that require nonaqueous solvents, dilutions are made from the appropriate stock solution with medium. In these instances, basal and bone resorption stimulated controls exposed to an equivalent concentration of the vehicle are included. […] The right ulna and radius from each fetus are used. Both bones are subjected to the same treatment and each treatment group consists of bones from 4 or more fetuses. Treatments are randomly assigned using a preclinical statistics program (PS-ALLOC). After a 48 hour incubation at 37° C. in 5% CO2, the bones are removed from the medium and extracted in 0.5 mL of 0.1N HCl for 1 or more days. Duplicate 150 μL aliquots of the incubation medium and the bone extract are analyzed for ^45 Ca radioactivity in 5 mL of liquid scintillation cocktail.
The percentage of bone ^45 Ca released into the medium is determined as follows: [formula] […]

[3] = test system: osteopenia induced by denervation of the sciatic nerve in rats; experiment: Denervation Induced Osteopenia in Rats; assay type: in vivo, rat (female Sprague Dawley CD)
Description: The purpose of this assay is to evaluate the effect, in rats, of agents on the reduction in bone mass (osteopenia) induced by immobilization resulting from surgical severance (denervation) of the sciatic nerve.
The animals are housed in plastic cages (4 or 5 rats/cage) with food (rat purina 500 chow) and water ad libitum; 14/10 day/night cycle.
After one week of in-house acclimatization, the animals are randomly divided into groups of 6 to 10 rats/group. Each rat is weighed, anesthetized with an intraperitoneal administration of 100 mg/kg ketamine (Bristol Laboratories, Syracuse, N.Y.) and 0.75 mg/kg Acepromazine (Aveco, Ft. Dodge, Iowa). The left hind limb is shaved and denervated by making a lateral incision parallel to the femur and by surgically removing half of a centimeter of the sciatic nerve adjacent to caudofemoralis and adductor brevis muscles. The incision is closed with wound clips. After surgery, the rats are housed in cages with absorbent bedding to minimize additional trauma to the immobilized limb. A 24 hour post-surgery recovery period is allowed before the initiation of the drug treatment.
The concentration of the drug stock is calculated to be delivered in a volume of 0.1 mL/100 gram body weight. The drug solution or a uniform suspension is prepared in 1% Tween 80 in normal saline. The drugs are administered via oral or parenteral routes daily (five times a week) for four weeks.
A sequential triple labeling of mineralized tissue is employed to determine the osseous changes (especially the bone formation) and the mineralization rates. Each animal is administered 90 mg/kg Xylenol orange (Fisher Scientific Company), S.C., 15 mg/kg Calcein (Sigma Chemical Company), S.C. and 15 mg/kg Demeclocycline (Sigma Chemical Company), i.p., approximately 21 days, 10 days and 2 days prior to the termination of the study, respectively.
At the end of the fourth week, each rat is weighed, anesthetized with an intraperitoneal administration of 100 mg/kg ketamine with 0.75 mg/kg Acepromazine and approximately 4 mL of blood collected via cardiac puncture. The anesthetized rats are euthanized by exposure to carbon dioxide. The femora and tibiae from both limbs are dissected free of soft tissue. (i) Femora are ashed at ~1100° C. for 16 hours using a muffle furnace. --(ii) Proximal tibia are fixed, dehydrated and embedded undecalcified in a methyl methacrylate-glycol methacrylate mixture. Longitudinal tissue sections (10 microns) are prepared on a Polycut S microtome (Reichert). Staining is performed on free-floating sections using a modified Goldner's stain, which are then mounted and coverslipped.
Cancellous bone content in the proximal tibia is quantified (as two dimensional bone mineral area [B.Ar]) with an image analysis processing device (software developed by Drexel University).
The areas of the tibia selected for cancellous bone content evaluation are the primary and secondary spongiosa. To select and standardize this area for evaluation, the epiphyseal growth plate-metaphyseal junction is oriented parallel to the abscissa of the digitizing screen. Bone elements 1.7 mm (secondary spongiosa) and 0.2 mm (primary spongiosa) from the growth plate and equidistant from the flanking cortical elements are then quantified as described above. The total area evaluated is 2.30 mm wide and 1.45 mm deep, constituting a 3.34 mm^2 area.
Body weight, femur mass (dried or ashed) and trabecular (cancellous) bone mineral area (B.Ar) are determined.
The difference (both absolute and percent change) in femur mass and bone mineral area between intact (control) and denervated limbs of a treatment group are compared with that for the vehicle group using a one-way analysis of variance with Dunnett's test, or other multiple comparison methods.
The results are reported in Table I and II under the heading In Vivo.

Row | SMILES | Inhibition of Bone Resorption, Basal ([1]; Table I) | Inhibition of Bone Resorption, PTH Induced ([2]; Table I) | Inhibition of Bone Resorption, In Vivo ([3]; po, 672 h) | Inhibition of Bone Resorption, Basal ([1]; Table II) | Inhibition of Bone Resorption, PTH Induced ([2]; Table II) | Inhibition of Bone Resorption, In Vivo ([3]; Table II, 25 mg/kg, p.o.)
1 | [O-][S+](Cc1cccc(OCc2ccccc2)c1)c1nc2cnccc2[nH]1 (stereo not drawn) [Example 23] | Active | Active | Inactive |  |  | 
2 | [O-][S+](Cc1cc2c(cc1Cl)OCO2)c1nc2cnccc2[nH]1 (stereo not drawn) [Example 25] | Active | Active | Inactive |  |  | 
3 | COc1ccc(CSc2nc3cnccc3[nH]2)cc1 [Example 26, 2-[[(4-Methoxyphenyl)methyl]thio]-1H-imidazo[4,5-c]pyridine] |  |  |  | Inactive | Active | Inactive
4 | Fc1ccc(CSc2nc3cnccc3[nH]2)cc1F [Example 30, 2-[[(3,4-Difluorophenyl)methyl]thio]-1H-imidazo[4,5-c]pyridine] |  |  |  | Inactive | Inactive | Inactive
5 | [O-][S+](Cc1ccc(F)c(F)c1)c1nc2cnccc2[nH]1 (stereo not drawn) [Example 31, 2-[[(3,4-Difluorophenyl)methyl]sulfinyl]-1H-imidazo[4,5-c]-pyridine-One Tenth Hydrate] | Active | Active | Inactive |  |  | 
6 | Fc1c(F)c(F)c(CSc2nc3cnccc3[nH]2)c(F)c1F [Example 32, 2-[[(Pentafluorophenyl)methyl]thio]-1H-imidazo[4,5-c]pyridine] |  |  |  | Inactive | Inactive | Inactive
